Assay results published in US20120029037A1, “ANIMAL ECTOPARASITE-CONTROLLING AGENT” (SUMITOMO CHEMICAL COMPANY, LIMITED, priority 2010, published 2012).

How the values were obtained:
Format in all cases: in vivo
[1] = system: Mouse-infested ticks (Haemaphysalis longicornis); assay: Oral administration against mouse-infested ticks; settings: 20 mg in 10 mL test solution at 10 mL per 1 kg body weight, 2 days after administration
Procedure: Oral Administration Against Mouse-Infested Ticks (Haemaphysalis longicornis)
The previous day before oral administration, 30 test ticks (Haemaphysalis longicornis, young ticks) were deposited on a mouse. Before the oral administration, uninfested ticks were removed.
(§1) The present hydrazide compound (5) (20 mg) was dissolved in dimethylformamide (680 mg), and thereto pure water or a corn oil was added to prepare a test solution (10 mL). Said test solution was orally administered to the mouse at the rate of 10 mL per 1 kg of the body weight of the mouse with a gastric sonde. To a control group, a 7% dimethylformamide/corn oil solution alone was orally administered. Each administration was repeated 3 times per group.
Two (2) days after the administration, the number of dead ticks was examined and the mortality was calculated by the following formula:
Mortality (%)=100×(number of dead ticks/infested ticks before oral administration)

[2] = system: Cat-infested cat fleas (Ctenocephalides felis); assay: Dropping application against cat-infested cat fleas; settings: dropping on skin; for Flea control rates (%) at 2 days after the application: vs infestation before application; for Flea control rates (%) at 16 days after the application: vs placebo group
Procedure: Propping Application Against Cat-Infested Cat Fleas (Ctenocephalides felis)
The previous day before dropping application, 50 test fleas (cat flea adults) were deposited on a cat. Before the dropping application, infested fleas were counted.
(§2) The present hydrazide compound (5) (0.75 g or 1.5 g) was dissolved in diethylene glycol monoethyl ether (6.0 g) to prepare a test solution. Said test solution was directly dropped on the skin of the neck and back of the cat while pushing aside fur thereon on at a rate of 0.1 ml per 1 kg of the cat's body weight (dose amount: 10 or 20 mg/kg). This is referred to as a test group. On the other hand, diethylene glycol monoethyl ether alone was applied dropwise to a placebo group.
Two (2) days after the application, the number of living fleas, which were infesting the cats, was examined. When the examination was completed, all infested fleas were removed from the cats.
Fourteen (14) days later, 50 test fleas were re-deposited on each cat. Two (2) days after the re-deposit, the number of living fleas, which were infesting the cats, was examined. When the examination was completed, all infested fleas were removed from the cats. The infestation rate and control rate were calculated by the following formulae: […]
(i) Method of calculating infestation rate and control rate at the initial stage (2 days) after the application:
Infestation rate (%) at X days after application=(number of living fleas at X days/number of living fleas before application)×100
Control rate (%) at X days after application=(infestation rate of test group before application−infestation rate of test group at X days)/infestation rate of test group before application×100
(ii) Method of calculating infestation rate and control rate at 16 days after the application:
Infestation rate (%) at X days after application=(number of living fleas at X days/number of fleas deposited)×100
Control rate (%) at X days after application=(infestation rate of placebo group at X days−infestation rate of test group at X days)/infestation rate of placebo group at X days×100
(§3) In addition, if an infestation rate of a test group is higher than a placebo group, then the control rate is deemed to be 0%.

[3] = system: Mouse-infested cat fleas (Ctenocephalides felis); assay: Oral administration against mouse-infested cat fleas; settings: 20 mg in 10 mL test solution at 10 mL per 1 kg body weight, 2 days later
Procedure: Oral Administration Against Mouse-Infested Cat Fleas (Ctenocephalides felis)
as §1, with “at a” for “at the”
After the oral administration, 20 cat fleas were deposited on each mouse. Two (2) days later, the number of cat fleas was examined and the mortality was calculated by the following formula:
(§4) Mortality (%)=100×(number of dead cat fleas/number of cat fleas tested)

[4] = system: Mouse-infested cat fleas (Ctenocephalides felis); assay: Dropping application against mouse-infested cat fleas; settings: 0.5% w/v solution 200 μL dropwise along dorsal line, 2 days later
Procedure: Propping Application Against Mouse-Infested Cat Fleas (Ctenocephalides felis)
The present hydrazide compound (5) (25 mg) was dissolved in propylene carbonate (5 mL) to prepare a 0.5% w/v solution. Said solution (200 μL) was applied dropwise along the dorsal line of a mouse with a pipette. To a control group, propylene carbonate (200 μL) alone was applied. Each application was repeated 3 times per group.
After the dropping application, 20 cat fleas were deposited on each mouse. Two (2) days later, the number of dead cat fleas was examined and the mortality was calculated by the following formula:
as §4

[5] = system: Mouse-infested ticks (Haemaphysalis longicornis); assay: Dropping application against mouse-infested ticks; settings: 0.1% w/v solution 200 μL dropwise to whole body surface, 2 days after application
Procedure: Propping Application Against Mouse-Infested Ticks (Haemaphysalis longicornis)
The previous day before dropping application, 30 test ticks (Haemaphysalis longicornis, young ticks) were deposited on a mouse. Before the dropping application, uninfested ticks were removed.
The present hydrazide compound (5) (5 mg) was dissolved in a mixture (5 mL) of propylene carbonate and diethylene glycol monoethyl ether in equal amounts to prepare a 0.1% w/v solution. Said solution (200 μL) was applied dropwise to the whole body surface of a mouse with a pipette. To a control group, the mixture (200 μL) alone was applied. Each application was repeated 3 times per group.
Two (2) days after the application, the number of dead ticks was examined and the mortality was calculated by the following formula:
Mortality (%)=100×(number of dead ticks/infested ticks before dropping application)

[6] = system: Ticks (Haemaphysalis longicornis); assay: Pesticidal activity on ticks in filter paper test; settings: 48 h, 100 mg/m^2, non-blood-fed young ticks, 2 days later
Procedure: Pesticidal Activity on Ticks (Haemaphysalis longicornis) in Filter Paper Test
Each (5 mg) of the present hydrazide compounds (5), (8), (11) and (12) was dissolved in acetone (10 mL), and this acetone solution (1 mL) was uniformly applied onto one side of a filter paper (TOYO No. 2; 5×10 cm; the surface area of the filter paper was 50 cm^2, and thus the amount of the present hydrazide compound applied was 100 mg/m^2). After drying, said filter paper was folded, and the both sides of the paper were clipped to form a bag. Into this bag, test ticks (Haemaphysalis longicornis, non-blood-fed young ticks, 10 ticks/group) were added, and the opening was clipped to seal the bag. Two (2) days later, the number of dead ticks was examined and the mortality was calculated by the following formula:
Mortality (%)=100×(number of dead ticks/number of ticks tested)

[7] = system: Dog-infested ticks (Haemaphysalis longicornis); assay: Dropping application against dog-infested ticks; settings: dropping on skin, 16 days after application, vs placebo group
Procedure: Propping Application Against Dog-Infested Ticks (Haemaphysalis longicornis)
as §2, with “(0.75” for “(0.75 g”, “dog” for “cat”, “thereon” for “thereon on”, “dog's” for “cat's”
Fourteen (14) days later, 100 test ticks were deposited on each dog. Two (2) days after the deposit, the number of living ticks, which were infesting the dogs, was examined. When the examination was completed, all infested ticks were removed from the dogs. The infestation rate and control rate were calculated by the following formulae: […]
Method of calculating infestation rate and control rate at 16 days after the application:
Infestation rate (%) at X days after application=(number of living ticks at X days/number of ticks deposited)×100
Control rate (%) at X days after the application=(infestation rate of placebo group at X days−infestation rate of test group at X days)/infestation rate of placebo group at X days×100
as §3

CC(C)CC(=O)NNc1cc(C2=NOC(c3cc(Cl)cc(Cl)c3)(C(F)(F)F)C2)ccc1Cl (centres unmarked) [Compound (5), N′-{2-chloro-5-[5-(3,5-dichlorophenyl)-5-trifluoromethyl-4,5-dihydroisoxazol-3-yl]phenyl}isovalerohydrazide]
Mortality [1]: ≥ 90%
Flea control rates (%) at 2 days after the application ([2]; dose 10 mg/kg): 83%
Flea control rates (%) at 16 days after the application ([2]; dose 10 mg/kg): 92%
Flea control rates (%) at 2 days after the application ([2]; dose 20 mg/kg): 92%
Flea control rates (%) at 16 days after the application ([2]; dose 20 mg/kg): 95%
Mortality [3]: ≥ 90%
Mortality [4]: ≥ 70%
Mortality [5]: ≥ 70%
mortality at 100 mg/m2 [6]: ≥ 90%
Tick control rates (%) at 16 days after the application ([7]; dose 10 mg/kg): 93%
Tick control rates (%) at 16 days after the application ([7]; dose 20 mg/kg): 100%

CCCCCC(=O)NNc1cc(C2=NOC(c3cc(Cl)cc(Cl)c3)(C(F)(F)F)C2)ccc1Cl (centres unmarked) [(12), N′-{5-[5-(3,5-dichlorophenyl)-5-trifluoromethyl-4,5-dihydroisoxazol-3-yl]-2-chlorophenyl}hexanohydrazide]
mortality at 100 mg/m2 [6]: ≥ 90%

CCCCC(=O)NNc1cc(C2=NOC(c3cc(Cl)cc(Cl)c3)(C(F)(F)F)C2)ccc1Cl (centres unmarked) [(11), N′-{5-[5-(3,5-dichlorophenyl)-5-trifluoromethyl-4,5-dihydroisoxazol-3-yl]-2-chlorophenyl}pentanohydrazide]
mortality at 100 mg/m2 [6]: ≥ 90%

CC(C)(C)C(=O)NNc1cc(C2=NOC(c3cc(Cl)cc(Cl)c3)(C(F)(F)F)C2)ccc1Cl (centres unmarked) [(8), N′-{5-[5-(3,5-dichlorophenyl)-5-trifluoromethyl-4,5-dihydroisoxazol-3-yl]-2-chlorophenyl}pivalohydrazide]
mortality at 100 mg/m2 [6]: ≥ 90%
